The inhibition is the percentage by which the read-out fell short of the control. A high value points to strong suppression. Broadly, the pIC50 is −log10 of the IC50, conventionally taken in molar units. Higher therefore signals a small IC50.

The values that follow come from ChEMBL document CHEMBL1122981, “Specific inhibition of benzodiazepine receptor binding by some N-(indol-3-ylglyoxylyl)amino acid derivatives” (J Med Chem, 1985).

The target in assay [1] is GABA-A receptor; anion channel (Bos taurus) (UniProt P10063+P08220+P20237+P08219+P10064+P22300). In words: Inhibition of specific [3H]flunitrazepam binding to benzodiazepine receptor at 250 uM. Format: protein-complex assay.
The target of assay [2] is GABA-A receptor; anion channel. In words: Inhibition of [3H]flunitrazepam binding to GABA-A central Benzodiazepine receptor of bovine brain membranes. It counts as cell membranes, Bos taurus.

Each structure is given as a SMILES string. pIC50: −log10 of the molar value.

`CCOC(=O)C(C)NC(=O)C(=O)c1c[nH]c2ccc(Br)cc12` (stereo not drawn) showed an inhibition in assay [1] of 100%. Also, in assay [2], the pIC50 is 5.32.

In assay [1], `O=C(NC(Cc1ccccc1)C(=O)O)C(=O)c1c[nH]c2ccc(Br)cc12` (stereo not drawn) returned an inhibition of 62%.

Take `CCOC(=O)C(Cc1c[nH]c2cc([N+](=O)[O-])ccc12)NC(=O)C(=O)c1c[nH]c2ccccc12` (stereo not drawn): in assay [1], the inhibition is 48%.

In turn, `O=C(NC(Cc1ccc(O)cc1)C(=O)O)C(=O)c1c[nH]c2ccc(Cl)cc12` (stereo not drawn) came in with an inhibition in assay [1] of 67%.

In turn, `CC(C)C(NC(=O)C(=O)c1c[nH]c2ccc([N+](=O)[O-])cc12)C(=O)O` (stereo not drawn) registered an inhibition in assay [1] of 83%. This molecule showed a pIC50 in assay [2] of 4.22.

`CCOC(=O)CNC(=O)C(=O)c1c[nH]c2ccc(Cl)cc12` returned an inhibition in assay [1] of 100%. The molecule further gave a negative logarithm of the IC50 (pIC50) in assay [2] of 5.27.

In turn, `O=C(NC(Cc1ccc(O)cc1)C(=O)O)C(=O)c1c[nH]c2ccc([N+](=O)[O-])cc12` (stereo not drawn) yielded an inhibition in assay [1] of 81%. Also, in assay [2], the negative-log IC50 (pIC50) was 4.12.

In turn, `CCOC(=O)CNC(=O)C(=O)c1c[nH]c2ccccc12` registered an inhibition in assay [1] of 84%.

`COC(=O)C(Cc1ccc(O)cc1)NC(=O)C(=O)c1c[nH]c2ccccc12` (stereo not drawn): the inhibition in assay [1] came out at 50%.

`O=C1CN=C(c2ccccc2)c2cc([N+](=O)[O-])ccc2N1` [NITRAZEPAM] showed a pIC50 in assay [2] of 7.42.

In the case of `CCOC(=O)C(Cc1ccc(O)cc1)NC(=O)C(=O)c1c[nH]c2ccc(Cl)cc12` (stereo not drawn), the inhibition in assay [1] stood at 89%. In assay [2], this molecule had a negative-log IC50 (pIC50) of 4.10.

For `CC(NC(=O)C(=O)c1c[nH]c2ccccc12)C(=O)O` (stereo not drawn), the inhibition in assay [1] was 72%.

On to `CCOC(=O)C(Cc1c[nH]c2ccccc12)NC(=O)C(=O)c1c[nH]c2ccc(Cl)cc12` (stereo not drawn), for which, in assay [1], the inhibition stood at 55%.

`O=C(NC(Cc1ccc(O)cc1)C(=O)O)C(=O)c1c[nH]c2ccccc12` (stereo not drawn): the inhibition in assay [1] stood at 27%.

`CCOC(=O)C(Cc1c[nH]c2ccccc12)NC(=O)C(=O)c1c[nH]c2ccc([N+](=O)[O-])cc12` (stereo not drawn) registered an inhibition in assay [1] of 59%.

The molecule `CN1C(=O)CN=C(c2ccccc2)c2cc(Cl)ccc21` [DIAZEPAM] showed a pIC50 in assay [2] of 7.39.

In assay [1], `CCOC(=O)CNC(=O)C(=O)c1c[nH]c2ccc(Br)cc12` registered an inhibition of 100%. In assay [2], this molecule showed a pIC50 of 5.70.

On to `CNC1=Nc2ccc(Cl)cc2C(c2ccccc2)=[N+]([O-])C1` [CHLORDIAZEPOXIDE], for which the negative-log IC50 (pIC50) in assay [2] was 5.96.

In turn, `COc1ccc2[nH]cc(C(=O)C(=O)NC(C(=O)O)C(C)C)c2c1` (stereo not drawn) yielded an inhibition in assay [1] of 12%.

In the case of `CC(NC(=O)C(=O)c1c[nH]c2ccc([N+](=O)[O-])cc12)C(=O)O` (stereo not drawn), the inhibition in assay [1] stood at 94%. The molecule also had a pIC50 in assay [2] of 5.21.

On to `CCOC(=O)C(Cc1ccccc1)NC(=O)C(=O)c1c[nH]c2ccc(OC)cc12` (stereo not drawn), for which, in assay [1], the inhibition came to 60%.

The molecule `CCOC(=O)C(Cc1c[nH]c2ccccc12)NC(=O)C(=O)c1c[nH]c2ccc(Br)cc12` (stereo not drawn) returned an inhibition in assay [1] of 100%. This molecule also had a pIC50 in assay [2] of 4.66.

In assay [1], `CCOC(=O)C(C)NC(=O)C(=O)c1c[nH]c2ccc(Cl)cc12` (stereo not drawn) had an inhibition of 100%. Besides, the pIC50 in assay [2] was 6.30.

In assay [1], `O=C(O)CNC(=O)C(=O)c1c[nH]c2ccccc12` displayed an inhibition of 20%.

For the molecule `CC(C)C(NC(=O)C(=O)c1c[nH]c2ccc(Cl)cc12)C(=O)O` (stereo not drawn), the inhibition in assay [1] was 68%.

Take `CCOC(=O)C(Cc1c[nH]c2ccccc12)NC(=O)C(=O)c1c[nH]c2ccccc12` (stereo not drawn): in assay [1], the inhibition came out at 70%.

Molecule `CCOC(=O)C(NC(=O)C(=O)c1c[nH]c2ccc(Br)cc12)C(C)C` (stereo not drawn) came in with an inhibition in assay [1] of 88%.

`CCOC(=O)C(Cc1ccccc1)NC(=O)C(=O)c1c[nH]c2ccc(Br)cc12` (stereo not drawn) displayed an inhibition in assay [1] of 65%.

Take `CCOC(=O)C(Cc1ccc(O)cc1)NC(=O)C(=O)c1c[nH]c2ccc(Br)cc12` (stereo not drawn): the inhibition in assay [1] came out at 68%.

Take `CCOC(=O)C(NC(=O)C(=O)c1c[nH]c2ccc(Cl)cc12)C(C)C` (stereo not drawn): the inhibition in assay [1] worked out at 62%.

With `O=C(NC(Cc1ccc(O)cc1)C(=O)O)C(=O)c1c[nH]c2ccc(Br)cc12` (stereo not drawn), the inhibition in assay [1] is 37%.

With `O=C(O)CNC(=O)C(=O)c1c[nH]c2ccc(Cl)cc12`, in assay [1], the inhibition was found to be 82%. In assay [2], this molecule had a pIC50 of 4.42.

As to `CCOC(=O)C(C)NC(=O)C(=O)c1c[nH]c2ccccc12` (stereo not drawn), the inhibition in assay [1] was found to be 80%.

With `CCOC(=O)C(NC(=O)C(=O)c1c[nH]c2ccccc12)C(C)C` (stereo not drawn), in assay [1], the inhibition is 77%.

`COC(=O)C(Cc1ccc(O)cc1)NC(=O)C(=O)c1c[nH]c2ccc([N+](=O)[O-])cc12` (stereo not drawn) came in with an inhibition in assay [1] of 100%. In addition, the pIC50 in assay [2] was 4.70.

In turn, `O=C(NC(Cc1c[nH]c2ccccc12)C(=O)O)C(=O)c1c[nH]c2ccc(Cl)cc12` (stereo not drawn) came in with an inhibition in assay [1] of 61%.

`O=C(NC(Cc1c[nH]c2ccccc12)C(=O)O)C(=O)c1c[nH]c2ccc(Br)cc12` (stereo not drawn) registered an inhibition in assay [1] of 66%.

As to `COc1ccc2[nH]cc(C(=O)C(=O)NC(Cc3ccccc3)C(=O)O)c2c1` (stereo not drawn), the inhibition in assay [1] was 38%.

As for `CCOC(=O)C(NC(=O)C(=O)c1c[nH]c2ccc(OC)cc12)C(C)C` (stereo not drawn), the inhibition in assay [1] amounted to 66%.

In assay [1], `O=C(NC(Cc1c[nH]c2ccccc12)C(=O)O)C(=O)c1c[nH]c2ccccc12` (stereo not drawn) displayed an inhibition of 11%.

In assay [1], `CCOC(=O)C(C)NC(=O)C(=O)c1c[nH]c2ccc([N+](=O)[O-])cc12` (stereo not drawn) returned an inhibition of 100%. This molecule showed a pIC50 in assay [2] of 6.70.

In assay [1], `O=C(NC(Cc1c[nH]c2cc([N+](=O)[O-])ccc12)C(=O)O)C(=O)c1c[nH]c2ccccc12` (stereo not drawn) gave an inhibition of 31%.

With `CC(C)C(NC(=O)C(=O)c1c[nH]c2ccc(Br)cc12)C(=O)O` (stereo not drawn), in assay [1], the inhibition was 72%.

Turning to `CC(C)C(NC(=O)C(=O)c1c[nH]c2ccccc12)C(=O)O` (stereo not drawn), the inhibition in assay [1] stood at 28%.

Molecule `CC(NC(=O)C(=O)c1c[nH]c2ccc(Cl)cc12)C(=O)O` (stereo not drawn) returned an inhibition in assay [1] of 93%. The same molecule gave a pIC50 in assay [2] of 4.66.
